# Measurements as given in patent US9375448B2, “Method for isolating a chemotherapeutic agent resistant cancer cell with stem cell properties” (THE ROGOSIN INSTITUTE, INC., priority 2010, dated 2016).
# Entries after “also recorded” stand apart in the source; their conditions may differ.
# Assays:
# RENCA cells [1] = experiment: Histological examination of agarose coated agarose beads containing RENCA cells one week after drug exposure; format: cell-based; design: key to Effect: −: no change; +: complete loss of cell viability; +/−: an intermediate effect; conditions: for Effect: histology one week following exposure; for Destruction of cells within the encapsulated tumor colonies: beads treated with the drug
# Procedure: Agarose coated, agarose beads containing RENCA cells were prepared in accordance with Smith, et al., Canc Res., 71(3): 716-724 (2011); and Smith et al., Canc. Res. 71(3): 725-735 (2011), the disclosures of which are incorporated by reference. The resulting beads were cultured in medium for 12 weeks.
# Samples of beads were then exposed to a single, known anti-cancer drug, at one of three varying concentrations. The exposure involved incubation of the beads in the presence of the drug for a period of time based upon the known, half life of the drug.
# Following incubation, the beads were washed, twice, and transferred to naïve culture media. Controls were also prepared, which included untreated beads, as well as beads exposed to whatever vehicle was used to solubilize the drug.
# Histological examination of the beads was undertaken one week following exposure to the drug. […]
# RENCA cells [2] = experiment: 18 week culture of drug treated RENCA beads, sectioned and stained to count cell nuclei, normalized to DMSO treated beads; format: cell-based; conditions: for beads that developed 1 or 2 large colonies: week 18
# Procedure: The Paclitaxel and Docetaxel treated beads were cultured, under standard conditions, as were control beads which had been exposed to DMSO, which was the vehicle for delivery of the two drugs. The culture period was 18 weeks.
# Approximately 10% of the beads developed 1 or 2 large colonies, at week 18.
# In order to quantify the cell loss, representative beads from the DMSO control, Paclitaxel and Docetaxel groups were sectioned and stained, using standard methods, in order to permit counting of cell nuclei. Results were normalized to the DMSO treated beads.
# In the case of treatment with Paclitaxel, there was an initial loss over weeks 1-3, of about 25% of cells per colony. The majority of colonies did contain viable cells. […] In the case of docetaxel treated beads, these lost viable cells very rapidly, such that only 1-2 viable cells were present in the colonies 6 weeks after treatment.
compound,measurement,setting,value
N.N.O=C([O-])C1(C(=O)[O-])CCC1.[Pt+2] [Carboplatin],Effect,"RENCA cells [1]; Treatment time 5 days, dose 25 μg/ml",+/−
same,Effect,"RENCA cells [1]; Treatment time 5 days, dose 250 μg/ml",+
same,Effect,"RENCA cells [1]; Treatment time 5 days, dose 2500 μg/ml",+
N.N.[Cl][Pt][Cl] [Cisplatin],Effect,"RENCA cells [1]; Treatment time 1 hr, dose 60 ng/ml",−
same,Effect,"RENCA cells [1]; Treatment time 1 hr, dose 600 ng/ml",−
same,Effect,"RENCA cells [1]; Treatment time 1 hr, dose 6000 ng/ml",−
CC(=O)O[C@@]12CO[C@@H]1C[C@H](O)[C@@]1(C)C(=O)[C@H](O)C3=C(C)[C@@H](OC(=O)[C@H](O)[C@@H](NC(=O)OC(C)(C)C)c4ccccc4)C[C@@](O)([C@@H](OC(=O)c4ccccc4)[C@H]21)C3(C)C [Docetaxel],viable cells per colony,"RENCA cells [2]; 5 μg/ml, 6 weeks post-treatment",1-2 cells per colony
same,beads that developed 1 or 2 large colonies,RENCA cells [2]; 5 μg/ml,Approximately 10%
same,beads that developed 1 or 2 large colonies,"RENCA cells [2]; 5 μg/ml, listed as docetaxel",about 10%
same,Effect,"RENCA cells [1]; Treatment time 1 day, dose 0.5 μg/ml",+/−
same,Effect,"RENCA cells [1]; Treatment time 1 day, dose 5 μg/ml",+/−
same,Effect,"RENCA cells [1]; Treatment time 1 day, dose 50 μg/ml",+/−
same,Destruction of cells within the encapsulated tumor colonies,RENCA cells [1],did not destroy all of the cells
COc1cccc2c1C(=O)c1c(O)c3c(c(O)c1C2=O)C[C@@](O)(C(=O)CO)C[C@@H]3O[C@H]1C[C@H](N)[C@H](O)[C@H](C)O1 [Doxorubicin],Effect,"RENCA cells [1]; Treatment time 2 days, dose 5 μg/ml",+
same,Effect,"RENCA cells [1]; Treatment time 2 days, dose 50 μg/ml",+
same,Effect,"RENCA cells [1]; Treatment time 2 days, dose 100 μg/ml",+
CN(Cc1cnc2nc(N)nc(N)c2n1)c1ccc(C(=O)N[C@@H](CCC(=O)O)C(=O)O)cc1 [Methotrexate],Effect,"RENCA cells [1]; Treatment time 1 day, dose 0.45 μg/ml",−
same,Effect,"RENCA cells [1]; Treatment time 1 day, dose 4.5 μg/ml",−
same,Effect,"RENCA cells [1]; Treatment time 1 day, dose 45 μg/ml",−
CC(=O)O[C@H]1C(=O)[C@@]2(C)[C@H]([C@H](OC(=O)c3ccccc3)[C@]3(O)C[C@H](OC(=O)[C@H](O)[C@@H](NC(=O)c4ccccc4)c4ccccc4)C(C)=C1C3(C)C)[C@]1(OC(C)=O)CO[C@@H]1C[C@@H]2O [Paclitaxel],cell number at week 18,"RENCA cells [2]; 3.5 μg/ml, 18 weeks culture",return to the pre-treatment number of cells; also recorded: equivalent to the control DMSO beads
same,cell number in beads over time after treatment,"RENCA cells [2]; 3.5 μg/ml, first 6 weeks post-treatment",loss of cells for 6 weeks
same,initial loss of cells per colony,"RENCA cells [2]; weeks 1-3 after treatment, normalized to DMSO treated beads",about 25%
same,Effect,"RENCA cells [1]; Treatment time 1 day, dose 0.35 μg/ml",−
same,Effect,"RENCA cells [1]; Treatment time 1 day, dose 3.5 μg/ml",+/−
same,Effect,"RENCA cells [1]; Treatment time 1 day, dose 35 μg/ml",+/−
same,Destruction of cells within the encapsulated tumor colonies,RENCA cells [1],did not destroy all of the cells
CCC1=C[C@@H]2CN(C1)Cc1c([nH]c3ccccc13)[C@@](C(=O)OC)(c1cc3c(cc1OC)N(C)[C@H]1[C@@](O)(C(=O)OC)[C@H](OC(C)=O)[C@]4(CC)C=CCN5CC[C@]31[C@@H]54)C2 [Vinorelbine],Effect,"RENCA cells [1]; Treatment time 2 days, dose 0.1 μg/ml",−
same,Effect,"RENCA cells [1]; Treatment time 2 days, dose 1 μg/ml",+/−
same,Effect,"RENCA cells [1]; Treatment time 2 days, dose 10 μg/ml",+/−
